# In patent US5945453A, “Benzoylphenylurea insecticides to control cockroaches” (Dow AgroSciences LLC, priority 1997, dated 1999):
# Experiments:
# Format in all cases: in vivo
# [1] = test system: Cat Flea (Ctenocephalides felis); assay: Continuous exposure of larvae to treated media, impact on subsequent adult emergence; conditions: for LC50 / LC90: continuous exposure of larvae, adult emergence
# Source text: Cat Flea (Ctenocephalides felis)
# Continuous exposure of larvae to treated media, impact on subsequent adult emergence
# [2] = test system: German cockroach 2nd instars (Blattella germanica); assay: Continuous, low-dose ingestion exposure (treated cornmeal)
# Source text: (§1) German cockroach 2nd instars (Blattella germanica)
# Continuous, low-dose ingestion exposure (treated cornmeal)
# [3] = test system: Subterranean Termite (Reticulitermes flavipes); assay: Limited exposure (7 days) with mortality determined at 14, 28, 42, and 56 days; conditions: for LT50 (days) for 10000 ppm treatment: limited exposure (7 days); for speed of activity, Compound 1 versus hexaflumuron: limited exposure
# Source text: (§2) Subterranean Termite (Reticulitermes flavipes)
# Limited exposure (7 days) with mortality determined at 14, 28, 42, and 56 days
# [4] = test system: Pharaoh Ant (Monomorium pharaonis); assay: Laboratory ant bait study, 3-4 day exposure to bait, brood reduction; conditions: 0.1%, best results achieved with compound
# Method: (§3) Laboratory ant bait studies were carried out with Red Imported Fire Ant (RIFA) (Solenopsis invicta) and Pharaoh Ant (Monomorium pharaonis). Chitin synthesis inhibitors, such as the compounds of the invention, control ants by killing the molting larvae and/or pupae and potentially preventing the hatching of eggs. Because adult workers are not affected, control is measured by effects on the brood.
# (§4) The studies involved 3-4 day exposure to bait. These limited exposure studies more accurately represent real world bait availability than continuous exposure.
# [5] = test system: Red Imported Fire Ant (RIFA) (Solenopsis invicta); assay: as above; conditions: for Time to Achieve 50% Brood Reduction / Time to Achieve 90% Brood Reduction: RIFA, best results achieved with compound
# Method: as §3, §4
# [6] = test system: Subterranean Termite (Reticulitermes flavipes); assay: Continuous exposure (56 days) to treated paper; conditions: for performance versus hexaflumuron: Eastern Subterranean termite
# Source text: as §2
# (§5) Continuous exposure (56 days) to treated paper
# [7] = test system: Subterranean Termite (Reticulitermes virginicus); assay: Continuous exposure (56 days) to treated paper; conditions: for LT50 (days) for 200 ppm trt / LC50 / speed of action versus hexaflumuron: continuous exposure
# Source text: Subterranean Termite (Reticulitermes virginicus)
# as §5
# [8] = test system: German cockroach 2nd instars (Blattella germanica); assay: Limited ingestion exposure (48 hr) to treated cornmeal; conditions: for LC50, high / LC50, low: 48 hr limited exposure; for LC50, high: 'high' column; for LC50, low: 'low' column (also holds the value where only one is printed); for potency versus hexaflumuron: limited exposure
# Source text: as §1
# Limited ingestion exposure (48 hr) to treated cornmeal
# Daphnia = assay: Activity against Daphnia, 48 hr exposure to treated water
# Source text: 48 hr exposure to treated water
# [9] = Southeastern subterranean termite
Compound,LC50 [1],LC90 [1],potency versus hexaflumuron [2],LC50 ([2]; 21 days),LC50 ([2]; 42 days),LT50 (days) for 10000 ppm treatment [3],"speed of activity, Compound 1 versus hexaflumuron [3]",LT50 (days) for 200 ppm trt [6],LC50 ([6]; 21 days),LC50 ([6]; 35 days),performance versus hexaflumuron [6],LT50 (days) for 200 ppm trt [7],LC50 ([7]; 21 days),LC50 ([7]; 35 days),"speed of action versus hexaflumuron [7, 9]","LC50, low ([8]; 21 days)","LC50, low ([8]; 42 days)",potency versus hexaflumuron [8],activity against Daphnia versus Compound 1 or hexaflumuron (Daphnia),other results
"O=C(NC(=O)c1c(F)cccc1F)Nc1cc(Cl)c(OC(F)(F)C(F)C(F)(F)F)c(Cl)c1 (stereo not drawn) [Compound 1, N-[3,5-Dichloro-4-(1,1,2,3,3,3-hexafluoropropoxy)phenyl]-N'-(2,6-difluorobenzoyl) urea]",8.6 ppm,12.8 ppm,far superior to hexaflumuron,14.5 ppm,< 0.23 ppm,34.5 days,comparable in speed of activity,32.9 days,> 200 ppm,< 0.78 ppm,no performance advantage,10.2 days,3.5 ppm,< 0.78 ppm,faster acting that hexaflumuron,< 1.0 ppm,< 1.0 ppm,far more potent than hexaflumuron,–,"activity versus hexaflumuron ([1]; fleas): far more active against fleas than was hexaflumuron; Time to Achieve 50% Brood Reduction [4]: 2 wks; Time to Achieve 90% Brood Reduction [4]: 4 wks; Time to Achieve 50% Brood Reduction ([5]; 0.1%): 2-3 wks; Time to Achieve 90% Brood Reduction ([5]; 0.1%): 4 wks; potency versus hexaflumuron ([5]; short exposure study with RIFA): significantly more potent than hexaflumuron; LC50, high ([8]; 21 days): 52.7 ppm; LC50, high ([8]; 42 days): 30.1 ppm"
"CCN(C(=O)Nc1cc(Cl)c(OC(F)(F)C(F)C(F)(F)F)c(Cl)c1)C(=O)c1c(F)cccc1F (stereo not drawn) [Compound 2, N-[3,5-Dichloro-4-(1,1,2,3,3,3-hexafluoropropoxy)phenyl]-N'-(2,6-difluorobenzoyl)-N'-ethyl urea]",329.4 ppm,> 1000 ppm,far superior to hexaflumuron,9.3 ppm,5.4 ppm,–,–,34.6 days,> 200 ppm,22.5 ppm,no performance advantage,–,–,–,–,192.0 ppm,–,far more potent than hexaflumuron,far less active against Daphnia than were Compound 1 or hexaflumuron,–
"CCN(C(=O)NC(=O)c1c(F)cccc1F)c1cc(Cl)c(OC(F)(F)C(F)C(F)(F)F)c(Cl)c1 (stereo not drawn) [Compound 3, N-[3,5-Dichloro-4-(1,1,2,3,3,3-hexafluoro-propoxy)phenyl]-N'-(2,6-difluorobenzoyl)-N-ethylurea]",78.0 ppm,460.7 ppm,far superior to hexaflumuron,1.3 ppm,0.78 ppm,–,–,–,–,–,no performance advantage,9.7 days,62.4 ppm,< 0.78 ppm,faster acting that hexaflumuron,52.2 ppm,30.9 ppm,far more potent than hexaflumuron,far less active against Daphnia than were Compound 1 or hexaflumuron,"potency versus hexaflumuron ([7]; 21 days of exposure, Southeastern subterranean termite): more potent at 21 days of exposure"
"O=C(NC(=O)c1c(F)cccc1F)Nc1cc(Cl)c(OC(F)(F)C(F)F)c(Cl)c1 [hexaflumuron, reference compound]",65.7 ppm,333.5 ppm,–,> 200 ppm,> 200 ppm,32.9 days,comparable in speed of activity,25.7 days,> 200 ppm,< 0.78 ppm,–,16.3 days,28.8 ppm,< 0.78 ppm,–,"> 10,000 ppm","> 10,000 ppm",–,–,Time to Achieve 50% Brood Reduction ([5]; 0.25%): 4 wks; Time to Achieve 90% Brood Reduction ([5]; 0.25%): 10 wks
